The record followed here is ChEMBL document CHEMBL1154966, “Metabolic activation of N-thiazol-2-yl benzamide as glucokinase activators: Impacts of glutathione trapping on covalent binding” (Bioorg Med Chem Lett, 2010).

Assay type in all cases: ADME, Microsome
Data set [1] deals with Liver microsomes. The data set is described as follows: Metabolic stability in human liver microsomes assessed as covalent binding at 10 uM after 1 hr by scintillation counting in absence of NADPH.
The test system of data set [2] is Liver microsomes. The data set is described as follows: Metabolic stability in human liver microsomes assessed as covalent binding at 10 uM after 1 hr preincubated for 15 mins with NADPH by scintillation counting. In general terms: Microsomes from liver hold many membrane-bound enzymes, among them those of drug oxidation.
Data set [3] concerns Liver microsomes. The data set is described as follows: Metabolic stability in rat liver microsomes assessed as covalent binding at 10 uM after 1 hr preincubated for 15 mins with NADPH by scintillation counting.
The subject of data set [4] is Liver microsomes. Description: Metabolic stability in rat liver microsomes assessed as covalent binding at 10 uM after 1 hr by scintillation counting in absence of NADPH.
The test system of data set [5] is Liver microsomes. Description: Metabolic stability in rat liver microsomes assessed as covalent binding at 10 uM after 1 hr by scintillation counting in presence of glutathione.

`C[C@@H](CO)Oc1cc(Oc2ccc(S(C)(=O)=O)cc2)cc(C(=O)Nc2nccs2)c1`: the Stability in the data set on Liver microsomes [1] is reported as 10 pmolequiv/mg; with Liver microsomes [2], 715 pmolequiv/mg; in the data set on Liver microsomes [3], 378 pmolequiv/mg; in the data set on Liver microsomes [4], 0 pmolequiv/mg; with Liver microsomes [5], 50 pmolequiv/mg.
